Results reported in patent US11242337B2, “Compounds useful for treating gastrointestinal tract disorders” (Ardelyx, Inc., priority 2017, dated 2022).

Legend:
[1] = target: T1, NHE3 (Homo sapiens, UniProt P48764); experiment: Cell-based assay of NHE-3 activity (persistent inhibition), human; conditions: human Persistence, 60 min incubation then washout
T1 construct: expressed in transfected cells
T1 sequence (P48764 26-834): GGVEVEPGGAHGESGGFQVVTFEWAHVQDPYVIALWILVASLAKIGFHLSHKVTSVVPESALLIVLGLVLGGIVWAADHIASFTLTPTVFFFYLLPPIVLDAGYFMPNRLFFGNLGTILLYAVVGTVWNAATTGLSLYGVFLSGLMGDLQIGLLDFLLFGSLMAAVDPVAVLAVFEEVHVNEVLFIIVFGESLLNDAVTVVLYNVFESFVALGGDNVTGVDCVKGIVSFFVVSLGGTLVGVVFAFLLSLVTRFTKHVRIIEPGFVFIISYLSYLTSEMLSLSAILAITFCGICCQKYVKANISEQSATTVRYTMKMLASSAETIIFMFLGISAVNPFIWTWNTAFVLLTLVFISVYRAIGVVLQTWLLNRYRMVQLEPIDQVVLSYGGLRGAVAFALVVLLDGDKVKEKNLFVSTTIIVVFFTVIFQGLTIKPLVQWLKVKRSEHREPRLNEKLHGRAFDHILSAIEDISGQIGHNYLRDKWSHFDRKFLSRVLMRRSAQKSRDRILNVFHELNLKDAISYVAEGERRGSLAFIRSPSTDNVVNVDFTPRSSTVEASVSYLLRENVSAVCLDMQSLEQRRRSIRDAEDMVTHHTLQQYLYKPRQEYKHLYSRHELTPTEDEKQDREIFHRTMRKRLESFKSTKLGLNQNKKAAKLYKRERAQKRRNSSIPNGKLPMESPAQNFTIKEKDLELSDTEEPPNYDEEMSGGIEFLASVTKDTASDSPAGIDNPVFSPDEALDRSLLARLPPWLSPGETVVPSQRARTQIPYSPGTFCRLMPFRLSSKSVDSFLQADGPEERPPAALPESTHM
T1 sequence (Q99653 2-195 partner limits assumed): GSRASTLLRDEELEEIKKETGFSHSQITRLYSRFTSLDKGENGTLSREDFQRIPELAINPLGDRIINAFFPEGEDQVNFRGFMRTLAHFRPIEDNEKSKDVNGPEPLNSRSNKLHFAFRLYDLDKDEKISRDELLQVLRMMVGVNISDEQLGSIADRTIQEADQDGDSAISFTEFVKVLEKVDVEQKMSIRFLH
Method in brief: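 Persistent inhibition: compound (0-30 μM, 60 min, RT, NaCl-HEPES pH 7.4) removed before assay. Human NHE3/NHERF2 PS120 cells were then BCECF-loaded during NH4Cl pulse (30 min, 37 °C), acidified in Na+-free buffer, and Na+ added 10 min after washout; antiport measured as initial fluorescence-ratio change per minute.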

[2] = target: T1, NHE3; experiment: Cell-based assay of NHE-3 activity (pre-incubation inhibition), human; conditions: human Preincubation; for pIC50 / IC50: 0-30 μM test compound
Method in brief: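 Activity read as initial rate of BCECF fluorescence ratio change per minute (ex 439/505, em 538 nm) following NH4Cl prepulse acid loading. Compound (0–30 μM) present during 10 min Na+-free acidification at room temperature; cells were PS120 fibroblasts stably co-expressing human NHE3 and NHERF2.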

SMILES	% inhibition [1]	% inhibition [2]	pIC50 [1]	pIC50 [2]	IC50 [1] [nM]	IC50 [2] [nM]
CN(C)[C@@H]1CCCN([C@H]2Cc3c(Cl)cc(Cl)cc3[C@@H]2Oc2ccc(S(=O)(=O)NCCOCCOCCNC(=O)NCCCCNC(=O)NCCOCCOCCNS(=O)(=O)c3ccc(O[C@H]4c5cc(Cl)cc(Cl)c5C[C@@H]4N4CCC[C@@H](N(C)C)C4)cc3)cc2)C1 [Example 25]	C (>70%)	C (>70%)	–	–	–	–
CN(C)[C@H]1Cc2c(C#N)cc(Cl)cc2[C@@H]1Oc1ccc(S(=O)(=O)NCCOCCOCCNC(=O)NCCCCNC(=O)NCCOCCOCCNS(=O)(=O)c2ccc(O[C@H]3c4cc(Cl)cc(C#N)c4C[C@@H]3N(C)C)c(F)c2)cc1F [Example 37, 3-[2-(2-[2-[(4-[[(1S,2S)-6-Chloro-4-cyano-2-(dimethylamino)-2,3-dihydro-1H-inden-1-yl]oxy]-3-fluorobenzene)sulfonamido]ethoxy]ethoxy)ethyl]-1-[4-([[2-(2-[2-[(4-[[(1S,2S)-6-chloro-4-cyano-2-(dimethylamino)-2,3-dihydro-1H-inden-1-yl]oxy]-3-fluorobenzene)sulfonamido]ethoxy]ethoxy)ethyl]carbamoyl]amino)butyl]urea]	B (40-70%)	B (40-70%)	C (NHE3 pIC50 > 7)	C (NHE3 pIC50 > 7)	–	–
N#Cc1cc(Cl)cc2c1C[C@H](N1CCC[C@@H](N)C1)[C@H]2Oc1ccc(S(=O)(=O)NCCOCCOCCNC(=O)NCCCCNC(=O)NCCOCCOCCNS(=O)(=O)c2ccc(O[C@H]3c4cc(Cl)cc(C#N)c4C[C@@H]3N3CCC[C@@H](N)C3)c(F)c2)cc1F [Example 38]	A (NHE3 < 40%)	A (NHE3 < 40%)	A (NHE3 pIC50 < 6)	A (NHE3 pIC50 < 6)	–	–
Cc1cc(S(=O)(=O)NCCOCCOCCNC(=O)NCCCCNC(=O)NCCOCCOCCNS(=O)(=O)c2ccc(O[C@H]3c4cc(Cl)cc(C#N)c4C[C@@H]3N3CCC[C@@H](N(C)C)C3)c(C)c2)ccc1O[C@H]1c2cc(Cl)cc(C#N)c2C[C@@H]1N1CCC[C@@H](N(C)C)C1 [Example 39]	A (NHE3 < 40%)	A (NHE3 < 40%)	C (NHE3 pIC50 > 7)	C (NHE3 pIC50 > 7)	–	–
CN(C)[C@@H]1CCCN([C@H]2Cc3c(C#N)cc(Cl)cc3[C@@H]2Oc2ccc(S(=O)(=O)NCCOCCOCCNC(=O)NCCCCNC(=O)NCCOCCOCCNS(=O)(=O)c3ccc(O[C@H]4c5cc(Cl)cc(C#N)c5C[C@@H]4N4CCC[C@@H](N(C)C)C4)c(F)c3)cc2F)C1 [Example 40, 3-[2-(2-[2-[(4-[[(1S,2S)-6-Chloro-4-cyano-2-[(3R)-3-(dimethylamino)piperidin-1-yl]-2,3-dihydro-1H-inden-1-yl]oxy]-3-fluorobenzene)sulfonamido]ethoxy]ethoxy)ethyl]-1-[4-([[2-(2-[2-[(4-[[(1S,2S)-6-chloro-4-cyano-2-[(3R)-3-(dimethylamino)piperidin-1-yl]-2,3-dihydro-1H-inden-1-yl]oxy]-3-fluorobenzene)sulfonamido]ethoxy]ethoxy)ethyl]carbamoyl]amino)butyl]urea; bis(trifluoroacetic acid)]	A (NHE3 < 40%)	A (NHE3 < 40%)	–	–	–	–
Cc1cc(S(=O)(=O)N2CC[C@H](COCCOCCNC(=O)NCCCCNC(=O)NCCOCCOC[C@H]3CCN(S(=O)(=O)c4ccc(O[C@H]5c6cc(Cl)cc(Cl)c6C[C@@H]5N(C)C)c(C)c4)C3)C2)ccc1O[C@H]1c2cc(Cl)cc(Cl)c2C[C@@H]1N(C)C [Example 44, 3-[2-(2-[[(3S)-1-[(4-[[(1S,2S)-4,6-dichloro-2-(dimethylamino)-2,3-dihydro-1H-inden-1-yl]oxy]-3-methylbenzene)sulfonyl]pyrrolidin-3-yl]methoxy]ethoxy)ethyl]-1-[4-([[2-(2-[[(3S)-1-[(4-[[(1S,2S)-4,6-dichloro-2-(dimethylamino)-2,3-dihydro-1H-inden-1-yl]oxy]-3-methylbenzene)sulfonyl]pyrrolidin-3-yl]methoxy]ethoxy)ethyl]carbamoyl]amino)butyl]urea; bis(trifluoroacetic acid)]	C (>70%)	C (>70%)	B (NHE3 pIC50 6-7)	C (NHE3 pIC50 > 7)	–	–
Cc1cc(S(=O)(=O)N2CC[C@H](COCCOCCNC(=O)NCCCCNC(=O)NCCOCCOC[C@H]3CCN(S(=O)(=O)c4ccc(O[C@H]5c6cc(Cl)cc(C#N)c6C[C@@H]5N(C)C)c(C)c4)C3)C2)ccc1O[C@H]1c2cc(Cl)cc(C#N)c2C[C@@H]1N(C)C [Example 46, 3-[2-(2-[[(3S)-1-[(4-[[(1S,2S)-6-Chloro-4-cyano-2-(dimethylamino)-2,3-dihydro-1H-inden-1-yl]oxy]-3-methylbenzene)sulfonyl]pyrrolidin-3-yl]methoxy]ethoxy)ethyl]-1-[4-([[2-(2-[[(3S)-1-[(4-[[(1S,2S)-6-chloro-4-cyano-2-(dimethylamino)-2,3-dihydro-1H-inden-1-yl]oxy]-3-methylbenzene)sulfonyl]pyrrolidin-3-yl]methoxy]ethoxy)ethyl]carbamoyl]amino)butyl]urea; bis(trifluoroacetic acid)]	C (>70%)	C (>70%)	–	–	< 100	< 100
Cc1cc(S(=O)(=O)N2CC[C@@H](COCCOCCNC(=O)NCCCCNC(=O)NCCOCCOC[C@@H]3CCN(S(=O)(=O)c4ccc(O[C@H]5c6cc(Cl)cc(C#N)c6C[C@@H]5N(C)C)c(C)c4)C3)C2)ccc1O[C@H]1c2cc(Cl)cc(C#N)c2C[C@@H]1N(C)C [Example 47]	C (>70%)	C (>70%)	–	–	–	–
Cc1cc(S(=O)(=O)N2CC[C@H](COc3ccnc(CNC(=O)NCCCCNC(=O)NCc4cc(OC[C@H]5CCN(S(=O)(=O)c6ccc(O[C@H]7c8cc(Cl)cc(Cl)c8C[C@@H]7N(C)C)c(C)c6)C5)ccn4)c3)C2)ccc1O[C@H]1c2cc(Cl)cc(Cl)c2C[C@@H]1N(C)C [Example 48, 3-[(4-[[(3S)-1-[(4-[[(1S,2S)-4,6-Dichloro-2-(dimethylamino)-2,3-dihydro-1H-inden-1-yl]oxy]-3-methylbenzene)sulfonyl]pyrrolidin-3-yl]methoxy]pyridin-2-yl)methyl]-1-[4-([[(4-[[(3S)-1-[(4-[[(1S,2S)-4,6-dichloro-2-(dimethylamino)-2,3-dihydro-1H-inden-1-yl]oxy]-3-methylbenzene)sulfonyl]pyrrolidin-3-yl]methoxy]pyridin-2-yl)methyl]carbamoyl]amino)butyl]urea]	C (>70%)	B (40-70%)	–	–	100 to 1000	100 to 1000
Cc1cc(S(=O)(=O)N2CC[C@H](COc3ccnc(CNC(=O)NCCCCNC(=O)NCc4cc(OC[C@H]5CCN(S(=O)(=O)c6ccc(O[C@H]7c8cc(Cl)cc(C#N)c8C[C@@H]7N(C)C)c(C)c6)C5)ccn4)c3)C2)ccc1O[C@H]1c2cc(Cl)cc(C#N)c2C[C@@H]1N(C)C [Example 50]	B (40-70%)	B (40-70%)	C (NHE3 pIC50 > 7)	C (NHE3 pIC50 > 7)	–	–
